As usually defined, the Solubility is how much of the substance goes into solution per volume. As a reminder, the Cmax is the peak of the concentration-time curve.

Converted amounts (≈) assume the structure as drawn. “Also recorded” adds a separate entry of the source.

The test system of one data set is C57 mouse CHF model. Description: In vivo efficacy on chronic heart failure in mice (coronary artery ligation, echocardiography), enalapril control. Particulars: positive control 2 mg/kg, p<0.0001 (FIG. 6). The procedure:
C57 mouse coronary artery ligation method was used in this experiment to prepare the mouse CHF model. The differences in echocardiography, hemodynamics and histopathology of the model were observed after administration. Test substance: compound 2. Solvent: 0.3% sodium carboxymethyl cellulose. Dosage: 1 mg/kg, 3 mg/kg, 10 mg/kg, 30 mg/kg and 100 mg/kg. Route of administration: intragastric. Control drug: enalapril 2 mg/kg. Strain: C57 mouse; Age: 7 weeks; Weight: 18-20 g; Gender: Male; Grade: SPF C57 mouse CHF model was established by coronary artery ligation method in this experiment. The differences in echocardiography, hemodynamics and histopathology of the model were observed after administration. 5 dose groups were set for compound 2 in this experiment. Enalapril was selected as the positive control. Once daily for 28 consecutive days. The doses for each group was 1 mg/kg, 3 mg/kg, 10 mg/kg, 30 mg/kg and 100 mg/kg. Positive control group: Enalapril (2 mg/kg) was administered after CHF was established. The mice were anesthetized in a box filled with isoflurane. After the mice were anesthetized, the left 4th intercostal space was opened to expose the left atrial appendage and left ventricle. It can be seen that the left coronary artery runs downward from the middle of the left atrial appendage to the anterior wall of the left ventricle. The coronary artery is sutured at a high position about 1 mm from the lower border of the left atrial appendage. After ligation, the myocardium gradually changes from fleshy red to pale white, indicating myocardial infarction. The model is successfully established, and the chest is closed layer by layer. After the spontaneous breathing of the mice recovered, the mice were caged and reared in a day-night cycle with free access to water and food. After being reared for 30 days, the chronic heart failure model was detected by echocardiography, and the mice with successful chronic heart failure model were selected. Qualified CHF mice screened by echocardiography were randomly grouped. Mice were given compound 2 by intragastric administration once daily for 28 consecutive days. The body weight of mice was measured every week, and echocardiography was performed after 28 days of administration. After the […] anesthetized, 1 mm^3 tissue was taken from the hearts of 3 mice in each group, fixed with electron microscope fixative, and detected by transmission electron microscope to observe the ultrastructure of the heart. All remaining heart tissues were fixed with 10% formaldehyde, and stained with HE for histopathology to observe histopathological changes.

Data set [1] is described as follows: Metabolic stability in rat liver microsomes. The data set is classed as in vitro ADME. Particulars: compared with compound 5 (cycloastragenol). In general terms: Liver microsomes are a subcellular fraction often used to study metabolism.
Data set [2] can be described thus: Metabolic stability in human liver microsomes. The data set is classed as in vitro ADME. The conditions noted are these: for Metabolic half-life of human liver microsomes: 5 μM compound, 1 mg/mL microsomes, 37° C. The procedure: Preparation of the test sample: Compound 1 (prepared in Example 5), 2 (prepared in Example 4), and 5 (cycloastragenol, purchased from Chengdu Jintaihe Company) were dissolved with an appropriate amount of DMSO to obtain a concentration of 10 mM solution.
1) The compound was diluted with DMSO to 0.5 mM, and diluted to 1/20 with PBS before the experiment.
2) Human liver microsomes and potassium phosphate buffer were added to the EP tube respectively and mixed by gentle shaking.
3) Pre-incubate the EP tube in a metal bath at 37° C. for 5 minutes. 4) Compound 1, 2 or 5 were added and incubated at 37° C.
5) Take 100 μl of sample from the tube at 0, 60, 120, 240, and 360 minutes respectively, and add the sample to the stop tube (containing 100 μl of cooled acetonitrile solution). The mixture was shaken vigorously to terminate the reaction and then placed it in a −30° C. refrigerator until analysis.
6) Centrifuge at 14300 r/min and 4° C. for 10 minutes, aspirate the supernatant and place it in a −30° C. refrigerator until analysis.
Column: Shim-pack XR-ODS II, 2.0×75 mm; mobile phase: mobile phase B: aqueous solution containing 0.2% formic acid; mobile phase A: acetonitrile solution; mobile phase ratio: […]

A short description of data set [3]: Solubility test in water and FaSSIF. The data set is classed as physicochemical. The conditions noted are these: 37° C., up to 24 hours.
Data set [4] in a line: Pharmacokinetics of parent HHQ16 after single intragastric administration of compound 2 prodrugs in rats. It is filed as in vivo, rat. The conditions noted are these: HHQ16 (parent) measured in rats after single intragastric 10 mg/kg of prodrug (dose converted to HHQ16). As to the method:
1. The materials and methods for oral absorption test are the same as described in example 44.
The pharmacokinetic parameters of HHQ16 measured after a single intragastric administration of 10 mg/kg of compound 2 prodrug in rats are summarized in Table 2 below.
The half-life was prolonged to varying degrees.

For `CCOC(=O)[C@H](CCc1ccccc1)N[C@@H](C)C(=O)N1CCC[C@H]1C(=O)O` [Enalapril, reference compound], the “Cardiac output per minute (CO), day 28 vs day 0” value in the data set on C57 mouse CHF model was “very significant increase”.

For the compound “(2aR,3R,4S,5aS,5bS,7S,7aR,9R,11aR,12aS)-9-halogen-3-((2R,5S)-5-(2-hydroxypropan-2-yl)-2-methyltetrahydrofuran-2-yl)-2a,5a,8,8-tetramethyltetradecahydro-1H,12H-cyclopenta[a]cyclopropa[e]phenanthrene-4,7-diol [Compound 1]”, in data set [1], the “metabolic stability in rat liver microsomes” value was “relatively stable; also recorded: more stable than cycloastragenol”. Besides, the “Metabolic half-life of human liver microsomes” value in data set [2] is 3.893 h. Moreover, in data set [2] (compared with compound 5 (cycloastragenol)), the “metabolic stability in human liver microsomes” value is recorded as “relatively stable; also recorded: more stable than cycloastragenol”.

As for `CC(C)(O)[C@@H]1CC[C@](C)([C@H]2[C@@H](O)C[C@@]3(C)[C@@H]4C[C@H](O)[C@H]5C(C)(C)[C@@H](O)CC[C@@]56C[C@@]46CC[C@]23C)O1` [Compound 5, (2aR,3R,4S,5aS,5bS,7S,7aR,9S,11aR,12aS)-3-((2S,5S)-5-(2-hydroxypropan-2-yl)-2-methyltetrahydrofuran-2-yl)-2a,5a,8,8-tetramethyltetradecahydro-1H,12H-cyclopenta[a]cyclopropa[e]phenanthrene-4,7,9-triol, reference compound], the Solubility stood at 49 µg/mL (≈ 99.9 µM) in data set [3] (FaSSIF (pH 6.5)) and 8 µg/mL (≈ 16.3 µM) in data set [3] (Water). In data set [2], the “Metabolic half-life of human liver microsomes” value turned out to be 0.308 h.

For `Br.CC(C)(O)C1CCC(C)(C2C(O)CC3(C)C4CC(OC(=O)CN)C5C(C)(C)C(F)(F)CCC56CC46CCC23C)O1` [Compound 2-16, 2-(((2aR,3R,4S,5aS,5bS,7S,7aR,11aR,12aS)-9,9-difluoro-4-hydroxy-3-((2S,5S)-5-(2-hydroxypropan-2-yl)-2-methyltetrahydrofuran-2-yl)-2a,5a,8,8-tetramethyltetradecahydro-1H,12H-cyclopenta[a]cyclopropa[e]phenanthren-7-yl)oxy)-2-oxoethan-1-aminium Bromide], in data set [4], the AUC0-t stood at 4623 ng·h/mL, the Cmax is 510 ng/mL and the t1/2 is listed as 5.2 h. In addition, the Solubility in data set [3] (FaSSIF (pH 6.5)) was found to be 5300 µg/mL. In data set [3] (Water), this compound had a Solubility of 950 µg/mL.

Turning to `CC(N)C(=O)N(C)CC(=O)OC1CC2C3(C)CC(O)C(C4(C)CCC(C(C)(C)O)O4)C3(C)CCC23CC32CCC(F)(F)C(C)(C)C12.Cl` [Compound 2-29, (S)-1-((2-(((2aR,3R,4S,5aS,5bS,7S,7aR,11aR,12aS)-9,9-difluoro-4-hydroxy-3-((2S,5S)-5-(2-hydroxypropan-2-yl)-2-methyltetrahydrofuran-2-yl)-2a,5a,8,8-tetramethyltetradecahydro-1H,12H-cyclopenta[a]cyclopropa[e]phenanthren-7-yl)oxy)-2-oxoethyl)(methyl)amino)-1-oxopropan-2-aminium Chloride], in data set [4], the AUC0-t came to 5221 ng·h/mL, the Cmax turned out to be 605 ng/mL and the t1/2 turned out to be 5.6 h. The Solubility in data set [3] (FaSSIF (pH 6.5)) amounted to 3130 µg/mL. Besides, the Solubility in data set [3] (Water) was 950 µg/mL.

The values are drawn from patent publication US20220177511A1, “SERIES OF HALOGENATED TETRACYCLIC TRITERPENE DERIVATIVES AND THEIR PREPARATION AND APPLICATION” (SHANGHAI KING-X BIOTECH CO., LTD, priority 2019, published 2022).
